From patent US20090149518A1, “PHARMACEUTICAL FOR PROTECTION OF MOTOR NERVE IN PATIENT WITH AMYOTROPHIC LATERAL SCLEROSIS” (ONO PHARMACEUTICAL CO., LTD., priority 2005, published 2009)

Key:
Assay type in all cases: in vivo, human
[1] = tested on: patients with amyotrophic lateral sclerosis; assay: Example 1 clinical study: clinical adverse events; conditions: Active group, 1200 mg once a day oral for 12 months plus standard riluzole
Description: (§1) As a clinical study, double blind placebo-controlled parallel group study was carried out on patients with amyotrophic lateral sclerosis, under the following conditions.
(§2) (1) Active group: (2R)-2-propyloctanoic acid 1200 mg (four soft capsules comprising 300 mg of (2R)-2-propyloctanoic acid per capsule);
(§3) Both Active and Placebo groups are administered for 12 months.
(§4) Riluzole was administered to all subjects in Active and Placebo groups in the manner of standard therapy (riluzole 50 mg tablet: one tablet twice a day (before breakfast and dinner), oral daily dose of 100 mg).
(§5) Evaluation method: Incidence and content (e.g., symptom, causal association, etc.) of clinical adverse events were monitored for each subject.
Evaluation time: Throughout the study.

[2] = tested on: patients with amyotrophic lateral sclerosis; assay: Example 1 clinical study: survival; conditions: Active group, 1200 mg once a day oral for 12 months plus standard riluzole; patients within about 14 months after onset of muscular weakness
Description: As a clinical study, double blind placebo-controlled parallel group study was carried out on patients with amyotrophic lateral sclerosis, under the following conditions. […] (1) Active group: (2R)-2-propyloctanoic acid 1200 mg (four soft capsules comprising 300 mg of (2R)-2-propyloctanoic acid per capsule); Both Active and Placebo groups are administered for 12 months. Riluzole was administered to all subjects in Active and Placebo groups in the manner of standard therapy (riluzole 50 mg tablet: one tablet twice a day (before breakfast and dinner), oral daily dose of 100 mg). Evaluation method: Death was recorded for each subject, if and when it occurs. Evaluation time. Throughout the study. Suppression of respiratory disability and improvement in survival rate are shown by oral administration of (2R)-2-propyloctanoic acid in the patient within about 14 months after the onset of muscular weakness (Active group: 55 patients, Placebo group: 54 patients. Both Active and Placebo groups are treated with standard riluzole therapy). Hereinafter, each result is described in detail, […]

[3] = tested on: patients with amyotrophic lateral sclerosis; assay: Example 2 clinical study: safety measurements; conditions: 1200 mg once a day oral for 18 months plus standard riluzole
Description: as §1, §2
(§6) Both Active and Placebo group are administered for 18 months.
(§7) Riluzole was administered to all subjects in Active and Placebo group in the manner of standard therapy (riluzole 50 mg tablet: one tablet twice a day (before breakfast and dinner), oral daily dose of 100 mg).
Evaluation method: Blood pressure and pulse of the subject were recorded at the following evaluation times.
Evaluation method: 12 lead ECG was conducted at the following evaluation times. Sinus rhythm, RR interval, PR interval, QRS duration, QT/QTc, and so forth were assessed.
Evaluation method: Weight of the subject was measured at the following evaluation times.
Evaluation method: Clinical laboratory test (haematology, biochemistry and urinalysis) of the subject was conducted at the following evaluation times.
as §5

[4] = tested on: patients with amyotrophic lateral sclerosis; assay: Example 2 clinical study: efficacy measurements; conditions: 1200 mg once a day oral for 18 months plus standard riluzole; patients less than 14 months from onset of muscular weakness
Description: as §1
(3) Less than 14 months from onset of muscular weakness;
as §2, §6, §7
(§8) Evaluation method: Slow vital capacity (SVC) of the subject was measured at the following evaluation times. SVC was measured three times in the sitting position, allowing sufficient recovery time between each manoeuvre. The highest SVC value was recorded.
Evaluation method: Functional status of the subject was assessed at the following evaluation times using revised amyotrophic lateral sclerosis functional rating scale (ALSFRS-R) shown in above-mentioned Table 1 to 13.
Evaluation method; Muscle strength of the subject was assessed at the following evaluation times using medical research council scale shown in before-mentioned Table 14. […]
Evaluation method: Death, bronchotomy, and using noninvasive ventilator were recorded for each subject, if and when it occurs. […]

[5] = tested on: patients with amyotrophic lateral sclerosis; assay: Example 1 clinical study: respiratory function (slow vital capacity); conditions: Active group
Description: as §1, §2, §3, §4, §8
Evaluation time: 1, 2, 4, 6, 8, 10 and 12 month(s) from the start of administration.
Suppression of respiratory disability and improvement in survival rate are shown by oral administration of (2R)-2-propyloctanoic acid in the patient within about 14 months after the onset of muscular weakness (Active group: 55 patients, Placebo group: 54 patients. Both Active and Placebo groups are treated with standard riluzole therapy). Hereinafter, each result is described in detail, […]

ALS patients = assay: Studies of the inventors: (2R)-2-propyloctanoic acid used alone in ALS patients; conditions: without riluzole

CCCCCC[C@@H](CCC)C(=O)O [(2R)-2-propyloctanoic acid]
frequency of adverse event [1]: 89%
frequency of serious adverse event [1]: 49%
mortality in the dosing period [2]: 9 of 55
survival rate [2]: 84%
safety in ALS patient [3]: safe
effectiveness on suppressing muscular weakness, suppressing respiratory disability, extending survival period, improvement in quality-of-life measures [4]: shows its effectiveness on at least one of
reduction of slow vital capacity (% of the predicted value) at 12 months from the start of administration compared to before-administration ([5]; 1200 mg once a day oral for 12 months plus standard riluzole 100 mg/day, patients within about 14 months after onset of muscular weakness (55 patients)): 38.27%
patients whose slow vital capacity was lowered to 50% or less of predicted in 12 months ([5]; 1200 mg once a day oral plus standard riluzole, patients within about 14 months after onset of muscular weakness, result of estimation): about 35 % of patients
effect on ALS patients when used alone (ALS patients): cannot exert any satisfactory effect
